Laboratory results reported in PubChem BioAssay AID1996.
Converted amounts (≈) assume the structure as drawn.

Conditions: buffer; pH 7.4; 200.0 µM

Row | Compound | solubility kinetic
1 | O=C(NCCc1ccccc1)c1ccc(NC(=O)c2cccnc2)cc1 | 4.3 µg/mL (≈ 12.4 µM)
2 | Cn1cnc(S(=O)(=O)N2CCN(c3ccccc3)CC2)c1 | 34.3 µg/mL (≈ 112 µM)
3 | Cc1cccc(NC(=O)COc2ccc3c(c2)CCC3)n1 | 2.4 µg/mL (≈ 8.5 µM)
4 | COc1ccccc1-c1nc(C#N)c(N2CC(C)CC(C)C2)o1 (configuration not stated) | 1.5 µg/mL (≈ 4.82 µM)
5 | O=C(CN1CCOCC1)Nc1ccc(Br)cc1 | > 44.9 µg/mL
6 | Cc1ccc(NC(=O)C2Cc3ccccc3C(=O)O2)cc1 (configuration not stated) | 4.7 µg/mL (≈ 16.7 µM)
7 | O=C(Nc1ccc(S(=O)(=O)NC2=NCCCCC2)cc1)c1cccs1 | > 56.6 µg/mL
8 | CCN(C(=O)CN1C(=S)NC(C)(C)CC1C)c1ccc(C)c(C)c1 (configuration not stated) | > 52.1 µg/mL
9 | Cc1noc(C(=O)NCC2CCCO2)c1Cl (configuration not stated) | > 36.7 µg/mL
10 | N#Cc1c(N)nc2c(c1-c1ccc(F)cc1)c(=O)nc1sccn12 | 5.7 µg/mL (≈ 16.9 µM)
11 | COCCN1CCn2c(nc3cc(NS(C)(=O)=O)ccc32)C1 | > 48.7 µg/mL
12 | CC(=Nc1ccc(F)cc1)c1c(O)n(C)c(=O)[nH]c1=O | 7 µg/mL (≈ 25.2 µM)
13 | CCC1Oc2ccccc2N(CC(=O)NC2CCCCC2)C1=O (configuration not stated) | 43.9 µg/mL (≈ 139 µM)
14 | O=C(Nc1ccc(-c2cnco2)cc1)c1ccc(F)cc1F | 0.8 µg/mL (≈ 2.66 µM)
15 | Cc1cccc(NC(=O)c2cccc(C(=O)Nc3cccc(C)c3C)n2)c1C | 1.1 µg/mL (≈ 2.95 µM)
16 | CCOc1ccccc1N1CC(C(=O)NC2CCCCCC2)CC1=O (configuration not stated) | 45.7 µg/mL (≈ 133 µM)
17 | O=C(O)C(=O)Nc1nc(-c2ccc3c(c2)OCCO3)cs1 | > 45.9 µg/mL
18 | Cc1cc(C)nc(SCC(=O)NC(=O)c2ccccc2O)n1 | > 47.6 µg/mL
19 | Cl.Clc1ccccc1CSC1=NCCN1 | > 39.5 µg/mL
20 | Clc1ccc(CNc2ncccn2)cc1 | 24.4 µg/mL (≈ 111 µM)
21 | O=C(NCCc1ccncc1)Nc1ccc(F)cc1 | > 38.9 µg/mL
22 | CSc1ccc(C2NC(=O)c3ccccc3N2)cc1 (configuration not stated) | 2.6 µg/mL (≈ 9.62 µM)
23 | FC(F)(F)c1cccc(Cc2noc(CN3C[C@@H]4CCC[C@H]3C4)n2)c1 | 28.4 µg/mL (≈ 80.8 µM)
24 | CS(=O)(=O)N(CC(=O)N1CCOCC1)c1cccc([N+](=O)[O-])c1 | > 51.5 µg/mL

Row | Compound | solubility kinetic
25 | CC1(C)OCC(COC(=O)Nc2cccnc2)([N+](=O)[O-])CO1 | 39.8 µg/mL (≈ 128 µM)
26 | CN(C(=O)c1cccc(NC(=O)c2ccco2)c1)c1ccccc1 | > 48.1 µg/mL
27 | O=C(NC1C2CC3CC(C2)CC1C3)C1CCCCC1 (configuration not stated) | 1.6 µg/mL (≈ 6.12 µM)
28 | CN1CCN(C(=O)CSc2ccc(Cl)cc2)CC1 | > 42.7 µg/mL
29 | O=C(c1cccs1)N1CCN(c2cccc(Cl)c2)CC1 | 26.3 µg/mL (≈ 85.7 µM)
30 | COc1cccc(COC(=O)C2CCN(C(=O)c3ccccc3C)CC2)c1OC | > 59.6 µg/mL
31 | O=C(COC(=O)COc1ccccc1[N+](=O)[O-])Nc1ccc2c(c1)OCO2 | 51.5 µg/mL (≈ 138 µM)
32 | COc1ccc(NC(=O)NC(C)c2ccccc2)cc1 (configuration not stated) | 15.5 µg/mL (≈ 57.3 µM)
33 | NC1=NC(=O)C(Cc2ccc(F)cc2)S1 (configuration not stated) | 22 µg/mL (≈ 98.1 µM)
34 | O=C(CCCOc1ccc(Cl)cc1Cl)Nc1ncccn1 | 7.7 µg/mL (≈ 23.6 µM)
35 | Cc1noc(C)c1S(=O)(=O)N1CCC(C(=O)O)CC1 | > 43.2 µg/mL
36 | Cc1cc(=O)[nH]c(Nc2cccc(Cl)c2C)n1 | > 37.5 µg/mL
37 | Br.COc1ccc(NC2=NCCCCC2)cc1 | 44.7 µg/mL
38 | Cc1ccc(SCC(=O)OCC(=O)NC2(C#N)CCCCC2)cc1 | 47.6 µg/mL (≈ 137 µM)
39 | Cc1nc(CN(C)Cc2nc(Cc3cccc(F)c3)no2)cs1 | > 49.9 µg/mL
40 | COc1ccccc1N1CCN(C(=O)C2CC2)CC1 | > 39.1 µg/mL
41 | Cc1cc(Cl)ccc1NC(=O)C1CCN(S(C)(=O)=O)CC1 | 10.8 µg/mL (≈ 32.6 µM)
42 | COc1ccccc1CNC(=O)C(NC(=O)c1ccccc1)C(C)C (configuration not stated) | 9.9 µg/mL (≈ 29.1 µM)
43 | CC(=O)C(C(C)=O)C(c1ccccc1)c1nc2ccccc2[nH]c1=O (configuration not stated) | 0.9 µg/mL (≈ 2.69 µM)
44 | O=C(Nc1nc2ccccc2c(=O)s1)c1ccc(F)cc1Cl | 0.9 µg/mL (≈ 2.69 µM)
45 | CCOC(=O)c1[nH]cnc1C(=O)Nc1ccc(Cl)cc1 | 2.2 µg/mL (≈ 7.49 µM)
46 | CCC(C)n1c(O)c(C=NCc2cccnc2)c(=O)[nH]c1=S (configuration not stated) | 44.8 µg/mL (≈ 141 µM)
47 | CCOC(=O)NC(=O)CSc1ccc2ccccc2n1 | 42.5 µg/mL (≈ 146 µM)
48 | CCCn1c(=O)c(C#N)cn(C2CC2)c1=O | 32.4 µg/mL (≈ 148 µM)

Row | Compound | solubility kinetic
49 | CC(=O)c1cc2c(cc1NC(=O)CN(C)S(=O)(=O)c1cccs1)OCO2 | 6.4 µg/mL (≈ 16.1 µM)
50 | COc1cc(OC)cc(C(=O)NC(=S)N2CCCCCC2)c1 | 43.6 µg/mL (≈ 135 µM)
51 | O=C(CSc1ncccc1C(=O)O)c1cccc(C(F)(F)F)c1 | > 51.2 µg/mL
52 | Cc1ccoc1C(=O)Nc1cccc2ccccc12 | 33.9 µg/mL (≈ 135 µM)
53 | O=C(COC(=O)c1cccnc1Cl)NC12CC3CC(CC(C3)C1)C2 | 50.1 µg/mL (≈ 144 µM)
54 | Cc1ccc(C(=O)NCc2ccc3c(c2)OCO3)c(C)c1 | 11.1 µg/mL (≈ 39.2 µM)
55 | CCN(CC)CCNc1oc(-c2ccccc2)nc1S(=O)(=O)c1ccccc1 | > 59.9 µg/mL
56 | N#Cc1ccccc1NC(=O)COC(=O)CN1C(=O)C2CCCCC2C1=O (configuration not stated) | > 55.4 µg/mL
57 | CC(NC(=O)c1ccccc1[N+](=O)[O-])C1CC2CCC1C2 (configuration not stated) | 35.2 µg/mL (≈ 122 µM)
58 | COCC(=O)Nc1nc(-c2ccc([N+](=O)[O-])cc2)cs1 | 7.3 µg/mL (≈ 24.9 µM)
59 | CCOc1ncccc1C(=O)Nc1ccc(F)c(Cl)c1 | 1 µg/mL (≈ 3.39 µM)
60 | Cc1ccccc1NC(=S)N1CCCCCC1 | > 37.3 µg/mL
61 | O=C(O)c1cccnc1Sc1ccccc1Cl | 37.6 µg/mL (≈ 142 µM)
62 | O=C(COC(=O)COc1cccc(F)c1)NCC1CCCCC1 | > 48.5 µg/mL
63 | Cc1cc(C)c(C)c(S(=O)(=O)N(C)CCc2ccccn2)c1C | > 49.9 µg/mL
64 | COc1cccc2c1OC1(CCN(C(C)C)CC1)N1N=C(c3cccnc3)CC21 (configuration not stated) | > 58.9 µg/mL
65 | Fc1ccc(CNC(=S)Nc2ccccc2F)cc1 | > 41.7 µg/mL
66 | Cc1ccc(CNC(=O)CN2C(C)CCCC2C)cc1 (configuration not stated) | 28.9 µg/mL (≈ 105 µM)
67 | CC1CCCN(S(=O)(=O)c2cc3c4c(c2)CCN4C(=O)CC3)C1 (configuration not stated) | > 50.2 µg/mL
68 | Cc1cc(Br)cc2c1NC(=O)C2(O)CC(=O)c1ccco1 (configuration not stated) | 47.7 µg/mL (≈ 136 µM)
69 | CN1CCN(C(=O)/C(C#N)=C/c2ccc(F)cc2)CC1.Cl | > 46.5 µg/mL
70 | Cc1cccc(NC(=O)COC(=O)c2ccc([N+](=O)[O-])o2)c1C | 17.2 µg/mL (≈ 54 µM)
71 | CCN1CNC(=S)N(c2ccccc2C)C1 | > 35.3 µg/mL
72 | CCOC(=O)c1c(C)[nH]c(C(=O)COC(=O)c2ccc([N+](=O)[O-])o2)c1C | 4.4 µg/mL (≈ 12.1 µM)

Row | Compound | solubility kinetic
73 | CCCc1cc(=O)[nH]c(SCC(=O)N2CCC(C)CC2)n1 | > 46.4 µg/mL
74 | Cc1ccccc1-c1nc(CN2CCSCC2)c(C)o1 | 26.1 µg/mL (≈ 90.5 µM)
75 | COc1ccc([N+](=O)[O-])cc1NC(=O)COC(C)=O | 35.7 µg/mL (≈ 133 µM)
76 | NS(=O)(=O)c1ccc(CNc2ncnc3sccc23)cc1 | > 48.1 µg/mL
77 | CC(=O)Nc1ccccc1NS(=O)(=O)c1ccccc1[N+](=O)[O-] | 47.4 µg/mL (≈ 141 µM)
78 | O=C(OCc1ccc([N+](=O)[O-])cc1Cl)c1cnccn1 | > 44.1 µg/mL
79 | O=C(CCC1CCCCC1)Nc1ccc(C(=O)c2ccncc2)cc1 | < 0.4 µg/mL
80 | Cc1cc(NC(=O)COC(=O)C2CSC3(C)CCC(=O)N23)ccc1Br (configuration not stated) | > 64.1 µg/mL
81 | COc1ccc(CNC(=O)CN2C(=O)NC(c3ccccc3)(c3ccccc3)C2=O)cc1 | 4.5 µg/mL (≈ 10.5 µM)
82 | COc1ccc(/C=C2\SC(=O)N(CCCC(=O)Nc3cc(Cl)ccc3C(=O)O)C2=O)cc1 | > 71.2 µg/mL
83 | COc1ccc(N2C(=O)NC(=O)/C(=C\c3ccccc3[N+](=O)[O-])C2=O)cc1 | 54.4 µg/mL (≈ 148 µM)
84 | O=C(OCC(=O)N1CCc2ccccc2C1)c1ccc(F)cc1Cl | 37.2 µg/mL (≈ 107 µM)
85 | CC(=O)c1cccc(NC(=O)COC(=O)c2ccccc2C)c1 | 4.9 µg/mL (≈ 15.7 µM)
86 | Cc1ccc(NC(=O)COC(=O)c2ccc3c(c2)OCO3)c(C)c1 | < 0.7 µg/mL
87 | CC1CCCC(C)N1CC(O)COC1CCC(C(C)(C)C)CC1.Cl (configuration not stated) | 46.9 µg/mL
88 | COc1cccc(/C=C/C(=O)Nc2ccccc2N2CCOCC2)c1 | 28.1 µg/mL (≈ 83 µM)
89 | Cc1ccc(-c2csc3ncnc(N4CCN(C)CC4)c23)cc1C | 45.7 µg/mL (≈ 135 µM)
90 | O=C(NCc1ccc(Cl)cc1)c1cc(=O)[nH]c2ccccc12 | 1.6 µg/mL (≈ 5.12 µM)
91 | O=C(Nc1ccc2[nH]c(=O)[nH]c2c1)c1cccc([N+](=O)[O-])c1 | 1.2 µg/mL (≈ 4.02 µM)
92 | C=CCc1cccc(CNc2c(C)cc(C)cc2C)c1O | 4.7 µg/mL (≈ 16.7 µM)
93 | COC(=O)C1=C(N)Oc2cc(C)[nH]c(=O)c2C1c1ccccc1OC (configuration not stated) | 46.5 µg/mL (≈ 136 µM)
94 | O=C(c1cccc(S(=O)(=O)Nc2ccc(Br)cc2)c1)N1CCC1 | 58.9 µg/mL (≈ 149 µM)
95 | Cc1cccc(N2CN=C3SCC(=O)N3C2)c1 | > 37.1 µg/mL
96 | O=C(O)Cc1ccc(NC(=O)Nc2ccc3c(c2)OCO3)cc1 | > 47.1 µg/mL

Row | Compound | solubility kinetic
97 | O=C(c1ccccc1SCc1ccccc1)N1CCOCC1 | 45.9 µg/mL (≈ 146 µM)
98 | CCn1c(=S)[nH]c2cc(C(=O)O)ccc21 | > 33.3 µg/mL
99 | CC(=O)C1=C(O)C(=O)N(c2ccccn2)C1c1ccccc1[N+](=O)[O-] (configuration not stated) | > 50.9 µg/mL
100 | Cc1ccc(F)cc1NC(=O)N1CCCN(c2ccc(C(F)(F)F)cn2)CC1 | 6.6 µg/mL (≈ 16.7 µM)
101 | Cc1ccccc1NC(=O)CCN1C(=O)c2ccccc2C1=O | 15.3 µg/mL (≈ 49.6 µM)
102 | O=C(NC(=S)Nc1ccccc1N1CCCC1)c1ccco1 | 25.3 µg/mL (≈ 80.2 µM)
103 | CC(C)N1CC(C(=O)Nc2ccc(F)c(Cl)c2)CC1=O (configuration not stated) | > 44.8 µg/mL
104 | Cc1cc(C)cc(C(=O)N2CCN(Cc3ccc4c(c3)OCO4)CC2)c1 | > 52.9 µg/mL
105 | CSc1ncc(CN2CCN(C(C)C)C(CCO)C2)cn1 (configuration not stated) | > 46.6 µg/mL
106 | CC(OC(=O)C1CC1)C(=O)Nc1cccc(S(=O)(=O)N2CCOCC2)c1 (configuration not stated) | > 57.4 µg/mL
107 | Cc1cccc(NS(=O)(=O)c2ccc(C(=O)N3CCC3)cc2)c1C | 50.8 µg/mL (≈ 147 µM)
108 | COc1ccc(NC2CCCN(Cc3cccc4cnccc34)C2)cc1 (configuration not stated) | 49.4 µg/mL (≈ 142 µM)
109 | NC(=O)c1ccc(NC(=O)CCN2C(=O)c3ccccc3C2=O)cc1 | 10.6 µg/mL (≈ 31.4 µM)
110 | Cc1ccc(C(=O)CCC(=O)NCc2ccc(Cl)cc2)cc1 | 9.7 µg/mL (≈ 30.7 µM)
111 | C=CCn1c(O)c(N=O)c2cc(C)ccc21 | > 32.4 µg/mL
112 | O=C(COC(=O)c1cc(S(=O)(=O)N2CCCC2)ccc1O)Nc1ccc(F)cc1F | > 66.1 µg/mL
113 | COC(=O)c1nc(N)sc1C(C)C | > 30 µg/mL
114 | CSCCC(NC(=O)c1ccco1)C(=O)NNC(=O)c1n[nH]c(=O)c2ccccc12 (configuration not stated) | > 64.4 µg/mL
115 | CCN(Cc1ccccc1)S(=O)(=O)c1ccc(OC)c2ncccc12 | > 53.5 µg/mL
116 | Cc1cnc(C(=O)OCC(=O)N2CCC(C)CC2)cn1 | > 41.6 µg/mL
117 | CC(C)N(Cc1ccccc1)C(=O)CN1C(=O)c2ccccc2C1=O | > 50.5 µg/mL
